# What was measured:
# [1] = tested on: wtHSV-1 McIntyre strain; assay: wtHSV-1 McIntyre strain propagation in 293, HeLa and Vero cells with ATA; type: cell-based, HSV-1
# Excerpt: (§1) The wtHSV-1 KOS strain and the ICP27-deficient derivatives of the wtHSV-1 KOS strain: vectors d27-1 (Rice and Knipe, J. Virol. (1990) 64:1704-1715), rHSV-rep2/cap2 and rHSV-EGFP (Kang et al., Gene Ther. (2009) 16:229-239) and their producer ICP27-complementing V27 cell line were obtained from AGTC (Alachua, Fla.). The wtHSV-1 MacIntyre strain, purchased from Advanced Biotechnologies Inc. (ABI, Columbia Md.) and wtHSV-1 KOS strain were propagated in Vero, 293 or HeLa cell lines. Infectious vector particles were harvested 72 hr postinfection by recovering culture supernatant. The titers of HSV-1 stocks in DNase resistant particles/ml (DRP/ml) were determined by Taqman assay. Viral genomes within crude culture medium were quantified via treatment in the presence of DNase I (50 U/ml final; Promega) at 37° C. for 60 min, followed by proteinase K (Invitrogen) digestion (1 U/ml) at 50° C. for 60 min, and then denatured at 95° C. for 30 min. Linearized plasmid pZero 195 UL36 (obtained from AGTC, Inc., Alachua, Fla.) was used to generate standard curves.
# (§2) ATA (Sigma-A1895 Aurintricarboxylic acid practical grade, ≥85% (titration), powder) stock solution was generated as 500 μM concentration in 100 mM sodium bicarbonate water solution. ATA stock solution was further diluted in DMEM+/−10% fetal bovine serum (FBS, Hyclone, Waltham, Mass.) into concentration ranges of […] ATA (8.5-21 μgATA/ml). The HSV-1 infection at multiplicity of infection of 0.15 (MOI=0.15) (typically 6×10^5 cells in a 6-well plate) was performed in 40% (⅖ vol) of the total final media volume for 1-2 hrs and the remaining media (60% or ⅗ of the total final volume) was added during the dilution step. The cells were then incubated 72 hours and supernatant harvested to perform forming units per milliliter (PFU/ml) and DRP/ml titer assays.
# (§3) Supernatants containing virus were harvested after three days as described above. […] Finally, ATA also appeared to inhibit both types of HSV-1 viruses in HeLa cells. Two-way ANOVA; Bonferroni test; −ATA vs. +ATA: ***: p<0.001, ns: p>0.05; n=4 independent experiments.
# For statistical calculations, a larger study with a set of ten independent experiments (n=10) was conducted in 6-well plates with or without ATA added during the infection step (Step 1) comparing replication-deficient d27-GFP and also wtHSV-1 McIntyre strain in order to investigate, whether ATA could increase the titer in the wtHSV-1 strain as well (FIG. 4B). ATA was added at […] to confluent cell monolayers, V27 cells for d27-1 or 293 cells for wtHSV-1 McIntyre, during the infection step (Step 1) and the cells were infected with vectors at MOI=0.15 while ATA was diluted 1 hr later to a final […] concentration.
# (§4) In order to illuminate the ATA mechanism of action by human genome array and the fact that Vero and V27 are monkey-derived cell lines, wtHSV-1 propagation was tested in several human cell lines (FIGS. 4A-4B). A propagation of two wild type HSV-1 (wtHSV-1) strains, KOS and McIntyre, were compared in three cell lines: human embryonic kidney 293 (293 cells), human cervical cancer HeLa cells and African green monkey kidney epithelial Vero cells. The experiments were carried out in 10% FBS-containing media following the ATA I protocol scheme, where 50 μM ATA was supplemented during the infection step and further diluted to 20 μM ATA concentration (see Material and Methods).
# [2] = SABiosciences (QIAGEN) Jak-Stat RT-PCR Microarray in 293 cells; type: cell-based, human; details: listed as printed as NOS1, 240911_at
# Procedure: 6×10e5 293 cells (from AGTC) were infected with wtHSV-1 McIntyre strain at MOI 1 in the presence of DMEM & 10% FBS with or without 50 uM ATA and 1-2 hours and diluted to 40% with DMEM & 10% FBS (final ATA concentration of 20 uM). Triplicate total RNA samples were harvested 24 hrs later using Qiagen RNeasy mini kit and DNase treated on the column and eluted. Eluate RNA triplicate samples were combined and photospectrometer O.D. readings were performed on the eluate at 260 and 280 nm to determine concentration. Sample RNA was converted into template cDNA using SABiosciences RT2 first strand kit. The cDNA was then used in the Human JAK/STAT Signaling Pathway PCR Array (PAHS-039A).
# [3] = tested on: wtHSV-1 KOS strain; assay: wtHSV-1 KOS strain propagation in 293, HeLa and Vero cells with ATA; type: cell-based, HSV-1
# Excerpt: as §1, §2, §3, §4
# [4] = 50 μM ATA at Step 1, 20 μM after Step 2, 293 cells
# [5] = 50 μM ATA at Step 1, 20 μM after Step 2, HeLa cells
# [6] = 50 μM ATA at Step 1, 20 μM after Step 2, Vero cells, 10% FBS
compound,measurement,setting,value
"O=C(O)C1=CC(=C(c2ccc(O)c(C(=O)O)c2)c2ccc(O)c(C(=O)O)c2)C=CC1=O [ATA, 5-((3-carboxy-4-hydroxyphenyl)(3-carboxy-4-oxo-2,5-cyclohexadien-1-ylidene)methyl)-2-hydroxybenzoic acid]",wtHSV-1 McIntyre titers in 293 cells,[1]; [4],reached the highest titers
same,propagation of HSV-1 McIntyre in HeLa cells,[1]; [5],inhibit
same,yield of wtHSV-1 McIntyre in Vero cells,[1]; [6],increased
same,wtHSV-1 McIntyre virus titer in 293 cells,"[1]; 50 μM ATA at infection, diluted to 20 μM, 10% FBS, n=4, without ATA 1.4×10^8",1.2×10^9 DRP/ml
same,increase of wtHSV-1 McIntyre titer after ATA addition,"[1]; 293 cells, 6-well plates, n=10, ATA 50 μM at Step 1, final 20 μM, MOI 0.15",9.1 times
same,wtHSV-1 McIntyre titer after ATA addition,"[1]; 293 cells, n=10, ATA 50 μM at Step 1, final 20 μM, without ATA 3.3×10^8",1.0×10^9 DRP/ml
same,"293 or Vero titers with ATA, McIntyre",[1]; summary statement,up to 1×10^9 DRP/ml
same,increase of wt HSV-1 McIntyre yields,[1]; summary statement,1 log
same,"expression, ATA (Jak-Stat RT-PCR Microarray)",[2]; ATA alone,1.02
same,"expression, HSV + ATA (Jak-Stat RT-PCR Microarray)","[2]; HSV + ATA, HSV alone 1.71",1.5
same,HSV-1 KOS growth in 293 cells,[3]; [4],inhibit
same,propagation of HSV-1 KOS in HeLa cells,[3]; [5],inhibit
same,yield of wtHSV-1 KOS in Vero cells,[3]; [6],increased
same,wtHSV-1 KOS titer in Vero cells,"[3]; 50 μM ATA at infection, diluted to 20 μM, 10% FBS, n=4, without ATA 1.7×10^8",9.1×10^8 DRP/ml
same,"293 or Vero titers with ATA, KOS",[3]; summary statement,up to 1×10^9 DRP/ml
same,increase of wt HSV-1 KOS yields,[3]; summary statement,1 log

# Reference: patent US11299715B2, “Use of iNOS inhibitors to increase viral yield in culture” (priority 2013, dated 2022)
